Data as given in patent US20230157996A1, “SMALL-MOLECULE INHIBITOR TARGETING EB VIRUS NUCLEAR ANTIGEN PROTEIN, PREPARATION METHOD AND USE THEREOF” (priority 2020, published 2023).
pEC50: −log10 of the molar value. Where two headings read alike, the source gives them in different places.

What was measured:
C666-1 cells [1] = assay: C666-1 cell viability, EC50 from 8-point dilution (Resazurin); type: cell-based; settings: 100-0.78 μmol/L, read-out: EC50 Quantitation
Procedure: In order to assess the effect of the EBNA1 inhibitor at the cellular level, the cytotoxicity assay was performed. The EBNA1 inhibitor selectively killed EBV-positive cell lines ([…]-1 cells), but had no toxicity to EBV-negative cell lines (HONE1 cells and HK1 cells). In the test, 100 μL different cell lines were inoculated in a transparent 96-well plate, each well containing 5×10^3 […]-1 cells. After the cells were cultured in an incubator with 5% carbon dioxide at 37° C. for 24 hours, 10 μL compound at a concentration range from 1 mmol/L to 7.8 μmol/L was added into each well (8 points, 2-fold dilution, the final concentration was 100-0.78 μmol/L), and treated in the incubator with carbon dioxide at 37° C. for 72 hours. The cell viability was assessed using a redox indicator Resazurin. Specifically, 10 μL Resazurin at a concentration of 600 μmol/L was added into each well, and incubated at 37° C. for 3 hours, and a Tecan microplate reader was used to detect the fluorescence signal at an excitation wavelength of 560 nm and an emission wavelength of 590 nm. A software was used to fit the inhibition curve and calculate the concentration for 50% of maximal effect (EC50). The selectivity of compound activity was assessed by comparing the EC50 of EBV-positive and EBV-negative cell lines.

C666-1 cells [2] = assay: C666-1 cell viability single concentration (50 μM) inhibition rate (Resazurin); type: cell-based; settings: Homo sapiens, C6661, 72 h
Method in brief: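 EBV-positive C666-1 cells (5×10^3/well), pre-cultured 24 h, were exposed to compound at 50 μmol/L final for 72 h at 37° C, 5% CO2, in duplicate. Viability by resazurin (3 h, ex 560/em 590 nm); inhibition rate computed relative to DMSO control and medium-only blank.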

[3] = 50 μM compound, 72 hours, C666-1 cells, read-out: C666-1 cell viability single concentration (50 μM) inhibition rate, Ratio* (Inh %)
[4] = C666-1 cells, single concentration, read-out: Inhibition Rate (Inh %)
[5] = read-out: C666-1 cell viability single concentration (50 μM) inhibition rate, Ratio* (Inh %)

SMILES	inhibition at 50 µM (C666-1 cells [2]; [3])	further results
O=C(O)c1cccc(N2CC(Oc3ccc(C(=O)N4CCOCC4)cc3)C2)c1-n1cccc1 [Example 266, 3-(3-(4-(morpholinyl-4-carbonyl)phenoxy)azetidin-1-yl)-2-(1H-pyrrol-1-yl)benzoic acid]	< 10%	pEC50 (C666-1 cells [1]; Homo sapiens, C6661, 72 h): < 4.00; inhibition at 50 µM (C666-1 cells [2]; [4]): < 10%
COC(=O)c1cccc(N2CC(OC(=O)NCc3ccc(C(F)(F)F)cc3)C2)c1-n1cccc1 [Example 154, Methyl 2-(1H-pyrrol-1-yl)-3-(3-(((4-(trifluoromethyl)benzyl)carbamoyl)oxy)azetidin-1-yl)benzoate]	10 to 30%	pEC50 (C666-1 cells [1]; Homo sapiens, C6661, 72 h): < 4.00; inhibition at 50 µM (C666-1 cells [2]; [4]): 10 to 30%
COC(=O)c1cccc(C#CN(C)S(=O)(=O)c2ccc(C)cc2)c1-n1cccc1 [Example 383]	10 to 30%	pEC50 (C666-1 cells [1]; 72 hours): < 4.00; pEC50 (C666-1 cells [1]; Homo sapiens, C6661, 72 h): > 4.30
COC(=O)c1cccc(N2CC(=CC(=O)OC(C)(C)C)C2)c1-n1cccc1 [Example 189, Methyl 3-(3-(2-(tert-butoxy)-2-oxovinyl)azetidin-1-yl)-2-(1H-pyrrol-1-yl)benzoate]	10 to 30%	pEC50 (C666-1 cells [1]; Homo sapiens, C6661, 72 h): 4.00 to 4.12; inhibition at 50 µM (C666-1 cells [2]; [4]): 10 to 30%
COC(=O)c1cccc(N2CC(OC(=S)Nc3ccc(Cl)cc3)C2)c1-n1cccc1 [Example 147, Methyl 3-(3-(((4-chlorophenyl)thiocarbamoyl)oxy)azetidin-1-yl)-2-(1H-pyrrol-1-yl)benzoate]	30 to 50%	pEC50 (C666-1 cells [1]; Homo sapiens, C6661, 72 h): 4.12 to 4.30; inhibition at 50 µM (C666-1 cells [2]; [4]): 30 to 50%
COC(=O)c1cccc(C#CN(Cc2ccccc2)S(C)(=O)=O)c1-n1cccc1 [Example 381, Methyl 3-((N-benzylmethylsulfonamido)ethynyl)-2-(1H-pyrrol-1-yl)benzoate]	30 to 50%	pEC50 (C666-1 cells [1]; Homo sapiens, C6661, 72 h): < 4.00; inhibition at 50 µM (C666-1 cells [2]; [4]): 30 to 50%
COC(=O)c1cccc(N2CC(OC(=O)Nc3ccc(Oc4ccccc4)cc3)C2)c1-n1cccc1 [Example 152, Methyl 3-(3-(((4-phenoxyphenyl)carbamoyl)oxy)azetidin-1-yl)-2-(1H-pyrrol-1-yl)benzoate]	< 10%	pEC50 (C666-1 cells [1]; Homo sapiens, C6661, 72 h): < 4.00; inhibition at 50 µM (C666-1 cells [2]; [4]): < 10%
COC(=O)c1cccc(N2CC(OC(=O)Nc3ccc(OC)cc3OC)C2)c1-n1cccc1 [Example 146, Methyl 3-(3-(((2,4-dimethoxyphenyl)carbamoyl)oxy)azetidin-1-yl)-2-(1H-pyrrol-1-yl)benzoate]	10 to 30%	pEC50 (C666-1 cells [1]; Homo sapiens, C6661, 72 h): < 4.00; inhibition at 50 µM (C666-1 cells [2]; [4]): 10 to 30%
O=C(Nc1ccccc1)c1ccc(OC2CN(c3cccc(C(=O)O)c3-n3cccc3)C2)cc1 [Example 302, 3-(3-(4-(phenylcarbamoyl)phenoxy)azetidin-1-yl)-2-(1H-pyrrol-1-yl)benzoic acid]	10 to 30%	pEC50 (C666-1 cells [1]; Homo sapiens, C6661, 72 h): < 4.00; inhibition at 50 µM (C666-1 cells [2]; [4]): 10 to 30%
COc1cccc(-c2c(C(=O)O)cccc2N2CC(Oc3ccc(CO)cc3)C2)c1 [Compound 67, 3′-methoxy-6-(3-(4-(hydroxymethyl)phenoxy)azetidin-1-yl)-[1,1′-biphenyl]-2-formic acid]	< 10%	–
COC(=O)c1cccc(N2CC(Oc3ccc(CO)cc3)C2)c1-c1ccc2cc[nH]c2c1 [Compound 39, Methyl 3-(3-(4-(hydroxymethyl)phenoxy)azetidin-1-yl)-2-(1H-indol-6-yl)benzoate]	30 to 50%	–
COc1ccc(NC(=S)OC2CN(c3cccc(C(=O)O)c3-n3cccc3)C2)cc1 [Example 159, 3-(3-(((4-methoxyphenyl)thiocarbamoyl)oxy)azetidin-1-yl)-2-(1H-pyrrol-1-yl)benzoic acid]	< 10%	–
COC(=O)c1cccc(N2CC(Oc3ccc(NC(=S)Nc4ccc(Cl)cc4)cc3)C2)c1-n1cccc1 [Example 226, Methyl 3-(3-(4-(3-(4-chlorophenyl)thioureido)phenoxy)azetidin-1-yl)-2-(1H-pyrrol-1-yl)benzoate]	10 to 30%	–
N#Cc1ccc(OC2CN(c3cccc(C(=O)O)c3-n3cccc3)C2)cc1 [Compound 94, 3-(3-(4-cyanophenoxy)azetidin-1-yl)-2-(1H-pyrrol-1-yl)benzoic acid]	< 10%	–
COC(=O)c1cccc(N2CC3(C2)CN(c2cccc(C(=O)OC)c2N)C3)c1 [Compound 15, Methyl 2-amino-3-(6-(3-(methoxycarbonyl)phenyl)-2,6-diazaspiro[3.3]heptan-2-yl)benzoate]	< 10%	–
O=C(O)c1cccc(N2CC(Oc3ccc(COc4cccnc4)cc3)C2)c1-n1cccc1 [Example 244, 3-(3-(4-((pyridin-3-yl-oxy)methyl)phenoxy)azetidin-1-yl)-2-(1H-pyrrol-1-yl)benzoic acid]	30 to 50%	–
O=C(O)c1cccc(N2CC(Oc3cccnc3)C2)c1-n1cccc1 [Example 260, 3-(3-(pyridin-3-yloxy)azetidin-1-yl)-2-(1H-pyrrol-1-yl)benzoic acid]	< 10%	–

SMILES	inhibition at 50 µM (C666-1 cells [2]; [3])	further results
COC(=O)c1cccc(N2CC3(CN(c4ccc(N)cc4)C3)C2)c1N [Compound 13, Methyl 2-amino-3-(6-(4-aminophenyl)-2,6-diazaspiro[3.3]heptan-2-yl)benzoate]	> 50%	–
Cc1ccc(S(=O)(=O)N(C#Cc2cccc(C(=O)O)c2-n2cccc2)Cc2ccc3c(ccn3C)c2)cc1 [Example 317, Lithium 3-(((4-methyl-N-((1-methyl-1H-indol-5-yl)methyl)phenyl)sulfonamido)ethynyl)-2-(1H-pyrrol-1-yl)benzoate]	–	inhibition at 50 µM (C666-1 cells [2]; [5]): 10 to 30%
O=C(O)c1cccc(OC2CN(c3cccc(C(=O)NCc4ccccc4)c3)C2)c1 [Compound 71, 3-((1-(3-(benzylcarbamoyl)phenyl)azetidin-3-yl)oxy)benzoic acid]	< 10%	–
Nc1c(C(=O)O)cccc1N1CC2(CN(c3cccc(C(=O)O)c3)C2)C1 [Compound 16, 2-amino-3-(6-(3-carboxylphenyl)-2,6-diazaspiro[3.3]heptan-2-yl)benzoic acid]	< 10%	–
COC(=O)c1cccc(N2CC(Oc3cc(F)c(Oc4ccccc4)c(F)c3)C2)c1-n1cccc1 [Example 204, Methyl 3-(3-(3,5-difluoro-4-phenoxyphenoxy)azetidin-1-yl)-2-(1H-pyrrol-1-yl)benzoate]	< 10%	–
Cc1cc(CO)ccc1OC1CN(c2cccc(C(=O)O)c2-n2cccc2)C1 [Example 300, 3-(3-(4-(hydroxymethyl)-2-methylphenoxy)azetidin-1-yl)-2-(1H-pyrrol-1-yl)benzoic acid]	< 10%	–
COC(=O)c1cccc(N2CC(Oc3ccc(COC4CCN(C(C)=O)CC4)cc3)C2)c1-n1cccc1 [Example 378]	< 10%	–
COC(=O)c1cccc(N2CC(Oc3ccc(CNS(=O)(=O)C4CC4)cc3)C2)c1-n1cccc1 [Compound 78, Methyl 3-(3-(4-(cyclopropylsulfonamidomethyl)phenoxy)azetidin-1-yl)-2-(1H-pyrrol-1-yl)benzoate]	> 50%	–
COC(=O)c1cccc(N2CC(Oc3ccc(COCCO)cc3)C2)c1-n1cccc1 [Example 372]	10 to 30%	–
CCC(=O)c1ccc(OC2CN(c3cccc(C(=O)OC)c3-n3cccc3)C2)cc1 [Example 214, Methyl 3-(3-(4-propionylphenoxy)azetidin-1-yl)-2-(1H-pyrrol-1-yl)benzoate]	< 10%	–
COC(=O)c1cccc(N2CC(Oc3ccc(NC(=S)Nc4ccccc4OC)cc3)C2)c1-n1cccc1 [Example 119, Methyl 3-(3-(4-(3-(2-methoxyphenyl)thioureido)phenoxy)azetidin-1-yl)-2-(1H-pyrrol-1-yl)benzoate]	10 to 30%	–
Nc1c(C(=O)O)cccc1N1CC(Oc2ccc(CO)cc2)C1 [Compound 36, 2-amino-3-(3-(4-(hydroxymethyl)phenoxy)azetidin-1-yl)benzoic acid]	< 10%	–
COC(=O)c1cccc(N2CC(Oc3ccc(CO)cc3)C2)c1-c1cccc(F)c1 [Compound 50]	10 to 30%	–
COC(=O)c1cccc(N2CC(Oc3ccc(CO)cc3)C2)c1-c1cc2ccccc2s1 [Example 395, Methyl 2-(benzo[b]thiophen-2-yl)-3-(3-(4-(hydroxymethyl)phenoxy)azetidin-1-yl)benzoate]	10 to 30%	–
O=C(O)c1cccc(C#CN(Cc2ccccc2)S(=O)(=O)c2ccccc2)c1-n1cccc1 [Example 341, 3-((N-benzyl-N-phenylsulfonamido)ethynyl)-2-(1H-pyrrol-1-yl)benzoic acid]	–	inhibition at 50 µM (C666-1 cells [2]; [5]): < 10%
COC(=O)c1cccc(N2CC(Oc3ccc(Oc4ccc(S(C)(=O)=O)cc4)cc3)C2)c1-n1cccc1 [Example 212, Methyl 3-(3-(4-(4-(methylsulfonyl)phenoxy)phenoxy)azetidin-1-yl)-2-(1H-pyrrol-1-yl)benzoate]	10 to 30%	–
